Source: patent publication US7622471B2, “Pyrazole derivatives having a pyridazine and pyridine functionality” (Daiichi Pharmaceutical Co., Ltd., priority 2003, dated 2009)
Where two headings read alike, the source gives them in different places.

Assays:
[1] = not dose-dependent; cited from earlier work
[2] = system: collagen-induced platelet aggregation; conditions: prior-art compound, cited from earlier work
[3] = system: collagen-induced platelet aggregation; test: Platelet aggregation-inhibiting action (collagen-induced aggregation of human platelet rich plasma); type: cell-based; conditions: human PRP, read-out: Inhibition of collagen-induced platelet aggregation, IC50
Procedure: Human blood was collected in the presence of 3.13% sodium citrate as an anticoagulant in a volume 1/10 the blood volume. The collected blood was centrifuged at 180 g for 10 minutes so as to separate the upper layer; i.e., platelet rich plasma (PRP) from the blood. The remaining lower layer was further centrifuged at 1600 g for 10 minutes, and platelet poor plasma (PPP); i.e., the thus-obtained upper layer, was collected. A solution (1 μL) of the inventive compound was added to PRP (200 μL), and the mixture was allowed to stand at 37° C. for 2 minutes. Subsequently, collagen (2 μL) was added to the resultant mixture so as to induce platelet aggregation. Percent platelet aggregation was measured by means of PAM-12C(SSR Engineering). Optical transmittance of PPP was employed as the value reflecting the state in which 100% coagulation occurred. Percent platelet aggregation values of PRP were determined at a series of concentrations of each Example compound. From the determined values, IC50 with respect to each compound was calculated.

cyclooxygenase-2 (COX-2) = target: T1, cyclooxygenase-2 (COX-2) (Homo sapiens, UniProt P35354); test: Inhibitory effect on COX-2 (COX Inhibitor Screening Assay Kit, PGF2α ELISA); type: biochemical; conditions: 50 μM compound
T1 construct: purchased Cayman Chemical Company 560101 and 560121
T1 sequence (P35354 18-604): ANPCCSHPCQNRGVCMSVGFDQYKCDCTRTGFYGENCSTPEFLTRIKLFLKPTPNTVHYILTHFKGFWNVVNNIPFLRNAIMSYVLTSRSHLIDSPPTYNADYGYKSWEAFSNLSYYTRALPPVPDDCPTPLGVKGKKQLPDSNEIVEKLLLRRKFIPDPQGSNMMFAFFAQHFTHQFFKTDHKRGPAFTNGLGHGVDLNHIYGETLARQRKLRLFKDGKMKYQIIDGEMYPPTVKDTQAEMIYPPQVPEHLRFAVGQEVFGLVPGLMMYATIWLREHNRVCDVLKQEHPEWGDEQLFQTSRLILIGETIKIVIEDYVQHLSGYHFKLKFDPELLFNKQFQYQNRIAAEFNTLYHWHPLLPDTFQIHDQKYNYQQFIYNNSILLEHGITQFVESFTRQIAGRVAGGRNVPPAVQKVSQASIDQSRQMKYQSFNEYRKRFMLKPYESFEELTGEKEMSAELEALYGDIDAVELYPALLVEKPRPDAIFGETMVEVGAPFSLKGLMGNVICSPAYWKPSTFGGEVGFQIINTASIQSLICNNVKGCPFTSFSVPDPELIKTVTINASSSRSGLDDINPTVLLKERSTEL
Procedure: (§1) Inhibitory activity against COX-1 and COX-2 of the compounds produced in the Examples was measured using a COX Inhibitor Screening Assay Kit (product of Cayman Chemical Company, Catalog Nos. 560101 and 560121).
(§2) Before starting the measurement, reaction buffer, heme, arachidonic acid, SnCl2, EIA buffer, washing buffer, prostaglandin (PG) screening EIA standard, PG screening acetylcholine esterase (AchE), tracer (chromogenic enzyme […] conjugate), and PG screening EIA antiserum were prepared ready for use.
(§3) (1) Production of PGF2α in the Presence of COX-1 or COX-2
(§4) A reaction mixture containing the compound of the Examples (50 μM) and COX-1 or COX-2 was incubated at 37° C. for 10 minutes. Arachidonic acid (10 μL) was added thereto, and the resultant mixture was further incubated at 37° C. for 2 minutes. 1N-Hydrochloric acid (50 μL) was added to the reaction mixture, to thereby stop the reaction. SnCl2 solution (100 μL) was added thereto, and the resultant mixture was kept at room temperature for 5 minutes.
(§5) (2) Quantitative Determination of PGF2α through ELISA
(§6) Antiserum (rabbit anti-PGF2αantibody, 50 μL) was added to the wells of 96 well plate that had been coated with mouse anti-rabbit IgG. A solution of PGF2α-containing mixture obtained above (2000-fold dilution, 50 μL) and AchE tracer (50 μL) were added to the well in this order, and the mixture was incubated at room temperature for 18 hours. The wells were washed 5 times with the washing buffer to remove an excessive AchE tracer, and Ellman reagent (200 μL) was added. After keeping the plate in a dark room for 60 minutes, absorbance at 405 nm was measured.
(§7) (3) Calculation of Inhibitory Activity of the Compound of the Examples
(§8) A calibration curve was obtained by use of the PG screening EIA standard, and the production amount of PGF2α was determined from the absorbance. Percent inhibition of COX-1 or COX-2 activity at 50 μM of the compound of the Examples was calculated.

cyclooxygenase-1 (COX-1) = target: T2, cyclooxygenase-1 (COX-1) (Ovis aries, UniProt P05979); test: Inhibitory effect on COX-1 (COX Inhibitor Screening Assay Kit, PGF2α ELISA); type: biochemical; conditions: 50 μM compound
T2 construct: purchased Cayman Chemical Company 560101 and 560121
T2 sequence (P05979 25-600): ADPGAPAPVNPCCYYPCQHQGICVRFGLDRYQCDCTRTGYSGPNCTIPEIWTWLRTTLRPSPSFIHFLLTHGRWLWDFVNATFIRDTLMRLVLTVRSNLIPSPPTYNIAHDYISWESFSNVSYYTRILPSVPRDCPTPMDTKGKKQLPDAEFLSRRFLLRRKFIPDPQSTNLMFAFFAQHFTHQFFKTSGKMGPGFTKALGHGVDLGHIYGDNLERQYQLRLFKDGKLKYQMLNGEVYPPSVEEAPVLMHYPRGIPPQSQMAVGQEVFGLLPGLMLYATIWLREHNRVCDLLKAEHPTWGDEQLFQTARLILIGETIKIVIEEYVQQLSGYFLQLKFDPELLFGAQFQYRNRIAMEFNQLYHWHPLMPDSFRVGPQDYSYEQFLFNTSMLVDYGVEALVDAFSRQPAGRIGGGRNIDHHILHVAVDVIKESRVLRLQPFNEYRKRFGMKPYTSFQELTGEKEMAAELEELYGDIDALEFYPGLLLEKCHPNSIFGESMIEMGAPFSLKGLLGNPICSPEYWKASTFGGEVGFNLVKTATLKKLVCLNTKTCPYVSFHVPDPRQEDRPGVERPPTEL
Procedure: as §1, §2, §3, §4, §5, §6, §7, §8

| IC50 [3] [nM] | SMILES | Inhibitory effect against COX-2 at 50 μM (% inhibition) (cyclooxygenase-2 (COX-2)) | Inhibitory effect against COX-1 at 50 μM (% inhibition) (cyclooxygenase-1 (COX-1)) | other results |
| --- | --- | --- | --- | --- |
|  | CC(=O)Oc1ccccc1C(=O)O [Aspirin] |  |  | rate of side effects such as hemorrhage in gastrointestine (aspirin-induced ulcer) [1]: about 1 per 100 patients |
|  | CS(=O)(=O)c1ccc(-c2cc(C#N)nn2-c2ccc(F)cc2)cc1 [Compound (A)] |  |  | IC50 ([2]; read-out: IC50 value against collagen-induced platelet aggregation): 5300 nM |
| 140 | COc1ccc(-n2nc(C(=O)N3CCOCC3)cc2-c2ccccn2)cn1 [Example 36, 4-[1-(6-Methoxy-3-pyridyl)-5-(2-pyridyl)pyrazole-3-carbonyl]morpholine] |  |  |  |
| 35 | COc1ccc(-n2nc(C(=O)N3CCN(C4CC4)CC3)cc2-c2ccccn2)cn1 [Example 55, 1-[1-(6-Methoxy-3-pyridyl)-5-(2-pyridyl)pyrazole-3-carbonyl]-4-cyclopropylpiperazine] |  |  |  |
| 260 | COc1ccc(-n2nc(C(=O)N3CC(N(C)C)C3)cc2-c2ccccc2)cn1 [Example 70, 1-[1-(6-Methoxy-3-pyridyl)-5-phenylpyrazole-3-carbonyl]-3-dimethylaminoazetidine] |  |  |  |
| 110 | COc1ccc(-n2nc(C(=O)N3CCCC(F)(F)C3)cc2-c2ccccn2)nn1 [Example 140, 1-[1-(6-Methoxy-3-pyridazinyl)-5-(2-pyridyl)pyrazole-3-carbonyl]-3,3-difluoropiperidine] |  |  |  |
| 90 | COc1ccc(-n2nc(C(=O)N3CCN(C)CC3)cc2-c2cnccn2)cn1 [Example 148, 1-[1-(6-Methoxy-3-pyridyl)-5-(2-pyrazinyl)pyrazole-3-carbonyl]-4-methylpiperazine] |  |  |  |
| 170 | COc1ccc(-n2nc(C(=O)N3CCCOCC3)cc2-c2ccccn2)cn1 [Example 160, 4-[1-(6-Methoxy-3-pyridyl)-5-(2-pyridyl)pyrazole-3-carbonyl]-1,4-oxazepane] |  |  |  |
| 90 | COc1ccc(-n2nc(C(=O)N3CCCCN3C(C)=O)cc2-c2ccccn2)cn1 [Example 163, 1-[1-(6-Methoxy-3-pyridyl)-5-(2-pyridyl)pyrazole-3-carbonyl]-2-acetylhexahydropyridazine] |  |  |  |
| 29 | COc1ccc(-n2nc(C(=O)N3CCN(C)CC3)cc2-c2ccc[nH]2)cn1 [Example 167, 1-[1-(6-Methoxy-3-pyridyl)-5-(pyrrol-2-yl)pyrazole-3-carbonyl]-4-methylpiperazine] |  |  |  |
| 17 | COc1ccc(-n2nc(C(=O)N3CCOCC3)cc2-c2ccc[nH]2)cn1 [Example 168, 4-[1-(6-Methoxy-3-pyridyl)-5-(pyrrol-2-yl)pyrazole-3-carbonyl]morpholine] |  |  |  |
|  | COc1ccc(-c2cc(C(F)F)nn2-c2ccc(S(N)(=O)=O)cc2)cc1F [compound (B)] |  |  | platelet aggregation inhibitory activity compared with inhibitory activity against COX-2 ([2]; in words): not so potent |

| SMILES | IC50 [3] [nM] | Inhibitory effect against COX-2 at 50 μM (% inhibition) (cyclooxygenase-2 (COX-2)) | Inhibitory effect against COX-1 at 50 μM (% inhibition) (cyclooxygenase-1 (COX-1)) | other results |
| --- | --- | --- | --- | --- |
| COc1ccc(-n2nc(C(=O)N3CCN(C)C(=O)C3)cc2-c2ccccn2)cn1 [Example 23, 1-[1-(6-Methoxy-3-pyridyl)-5 (2-pyridyl)pyrazole-3-carbonyl]-4-methyl-3-oxopiperazine] | 170 | 3.4 | −1.2 |  |
| COc1ccnc(-c2cc(C(=O)N3CCN(C)CC3)nn2-c2ccc(OC)nc2)c1 [Example 27, 1-[1-(6-Methoxy-3-pyridyl)-5-(4-methoxy-2-pyridyl)pyrazole-3-carbonyl]-4-methylpiperazine] | 270 | −0.1 | 0.5 |  |
| COc1ccc(-n2nc(C(=O)N3CCN(C)CC3)cc2-c2ccccc2)cn1 [Example 62, 1-[1-(6-Methoxy-3-pyridyl)-5-phenylpyrazole-3-carbonyl]-4-methylpiperazine] | 120 | −2.6 | −2.4 |  |
| COc1ccc(-n2nc(C(=O)N3CCCCC3)cc2-c2ccccn2)nn1 [Example 122, 1-[1-(6-Methoxy-3-pyridazinyl)-5-(2-pyridyl)pyrazole-3-carbonyl] piperidine] | 750 | 4.5 | 1 |  |
| COc1ccc(-n2nc(C(=O)N3CCN(C)CC3)cc2-c2ccccn2)nn1 [Example 132, 1-[1-(6-Methoxy-3-pyridazinyl)-5-(2-pyridyl)pyrazole-3-carbonyl]-4-methylpiperazine] | 400 | 10.5 | 2.7 |  |
| COc1ccc(-n2nc(C(=O)N3CCC(F)(F)CC3)cc2-c2ccccn2)nn1 [Example 139, 1-[1-(6-Methoxy-3-pyridazinyl)-5-(2-pyridyl)pyrazole-3-carbonyl]-4,4-difluoropiperidine] | 42 | 3.4 | 7.6 |  |
| COc1cnc(-n2nc(C(=O)N3CCN(C)CC3)cc2-c2ccccn2)cn1 [Example 144, 1-[1-(5-Methoxy-2-pyrazinyl)-5-(2-pyridyl)pyrazole-3-carbonyl]-4-methylpiperazine] | 440 | 8.8 | 9.7 |  |
